From patent publication US20120225905A1, “BEPOTASTINE COMPOSITIONS” (Mitsubishi Tanabe Pharma Corporation, priority 2010, published 2012)

Assay: Clinical Example 1: pharmacokinetic assessments
Format: in vivo, human
Settings: plasma, noncompartmental PK analysis
Description: At Visit 3 (a minimum of 3 days after Visit 2), a subset of approximately 35 subjects who qualified at Visit 2 were randomized and began PK blood draws in the clinic that occurred over 24 hours for placebo, 2%, 4%, or 6% dosages of bepotastine besilate (using a randomization ratio of 1:1:1:1). There were approximately nine subjects in each of the four treatment groups. Blood sampling for PK assessments was drawn within 90 minutes (pre-dose). Subjects were dosed and additional blood samples were collected at 10, 20, 30, and 45 minutes post-dose and at 1, 1.25, 2, 3, 4, 6, 10, and 12 hours post-dose while remaining in the clinic. Subjects returned the next day for a 24 hour post-dose PK blood draw. PK blood draws at 1, 1.25, 2, 3, 4, 6, 10, and 12 hours post-dose were within a ±1 minute window and at 24 hours post dose were within a ±60 minute window.
All subjects who qualified at Visit 2 returned to the clinic for Visit 4 following a minimum ten day washout period. At Visit 4, subjects recorded individual nasal and ocular symptoms on 0-3 unit scales prior to entering the EEC and every 30 minutes for the first two hours while in the EEC, including just prior to dosing. […] At the end of Visit 4, subjects recorded reflective nasal symptom scores, summarizing their subjective opinion of each nasal and ocular symptom score (same 0-3 unit scales), over the entire post-dosing period in the EEC. […]

SMILES: O=C(O)CCCN1CCC(O[C@@H](c2ccc(Cl)cc2)c2ccccn2)CC1 [bepotastine, (+)-(S)-4-[4-[(4-chlorophenyl)(2-pyridyl)methoxy]piperidino]butyric acid]
- absorption from the nasal sprays: absorbed quickly
- half-life: short
